# Test results: US8771744B2, “Barrier composition” (Prosonix Limited, priority 2009, dated 2014)
# Structures can show the parent of a compound that is named as a salt.
# Assay: Particle size distribution (Sympatec) of spray dried, ultrasound treated particles
# Assay type: physicochemical
# Excerpt: Preferably the active particles of the invention have a volume diameter of less than 10 μm, more preferably at least 90 wt % of the active ingredient particles in a given composition have a diameter equal to or lower than 10 μm as determined by measuring the characteristic equivalent sphere diameter, known as volume diameter, by laser diffraction as described above, preferably using a Malvern or equivalent apparatus. The parameters taken into consideration are the volume diameters (VD) in microns of 10%, 50% and 90% of the particles expressed as d(10), d(50) and d(90), respectively, which correspond to the mass diameter assuming a size independent density for the particles.
# Fenoterol hydrobromide (5 g) was dissolved in 100 mL of methanol. The samples of Fenoterol hydrobromide powder collected in the ultrasonic chamber were produced using a Büchi-290 laboratory-scale spray dryer (Büchi, Switzerland). The solution was atomized using nitrogen at 7 bar flowing at approximately at 10 Lpm (Liter/minute). The aspirator was set at 100% and flow rate of solution was set to […]. The gas temperature was set to 120° C. Fenoterol hydrobromide particles were collected from both the cyclone separator and the PTFE bag filter assembly. The resultant amorphous particles contained 3000 ppm (0.3% w/w) residual methanol. The particles were placed into an ultrasonic chamber fitted with a 20 kHz ultrasonic transducer on its base (Prosonix SL 10) as shown in FIG. 8. The chamber was heated to 40° C. using a thermoregulated water jacket. Ultrasound at 20 W power was applied between 30 minutes and 2 hour. The resulting particles were characterized by optical microscopy and DSC (Differential Scanning Calorimetry). The size of the particles were typically in the range of 1-7 μm. In this specific example d(10)=0.91 μm; d(50)=1.76 μm; d(90)=3.38 μm (see FIG. 4).
# [1] = spray dried particles after dry powder ultrasound treatment, FIG. 4
smiles,measurement,setting,value
CC(Cc1ccc(O)cc1)NCC(O)c1cc(O)cc(O)c1 (stereo not shown) [Fenoterol hydrobromide],size of the particles,"spray dried particles after dry powder ultrasound treatment (20 kHz, 20 W, 40° C., 30 minutes to 2 hour), typical range",1-7 μm
same,d(10),[1],0.91 μm
same,d(50),[1],1.76 μm
same,d(90),[1],3.38 μm
